Paper PMC12711630 (Cell Reports. Physical Science, 2025)
Several values for one entry are separate records, joined by “and”; a condition that tells them apart may be missing. Equal values may be shown once. Read-outs that look alike come from different tables or passages of the source. Marks after values point to notes of the source that are not given here.

What was measured:
[1] = molecular target: T1, (α4)3(β2)2 (LS isoform) α4β2 nAChR WT (Homo sapiens, UniProt P17787+P43681); experiment: Two-electrode voltage clamp, Xenopus oocytes expressing LS α4β2 nAChR, wild type; format: cell-based
T1 construct: expressed in transfected cells; host or cells: Xenopus laevis oocytes, nuclear injection of cDNA in plasmid pCI (10 α4 : 1 β2 for LS, 1 α4 : 10 β2 for HS)

[2] = molecular target: T2, human α7 nAChR (Homo sapiens, UniProt P36544); experiment: [125I]α-Bgtx radioligand binding (saturation and competition), membranes of transfected SH-SY5Y cells; settings: competition with [125I]α-Bgtx 2-3 nM, Cheng-Prusoff
T2 construct: expressed in transfected cells; host or cells: SH-SY5Y cells, transient transfection with JetPEI, membranes

[3] = molecular target: T3, (α4)2(β2)3 (HS isoform) α4β2 nAChR WT (Homo sapiens, UniProt P17787+P43681); experiment: Two-electrode voltage clamp, Xenopus oocytes expressing HS α4β2 nAChR, wild type; format: cell-based; settings: for EC50: Table 3, HS (α4)2(β2)3, varenicline variants series
T3 construct: expressed in transfected cells; host or cells: Xenopus laevis oocytes, nuclear injection of cDNA in plasmid pCI (10 α4 : 1 β2 for LS, 1 α4 : 10 β2 for HS)

[4] = molecular target: T4, 5-HT3A receptor (Homo sapiens, UniProt P46098); experiment: Inhibition of [3H]GR65630 binding, transfected HEK293 cell membranes; settings: for IC50: n=3
T4 sequence (P46098 24-478): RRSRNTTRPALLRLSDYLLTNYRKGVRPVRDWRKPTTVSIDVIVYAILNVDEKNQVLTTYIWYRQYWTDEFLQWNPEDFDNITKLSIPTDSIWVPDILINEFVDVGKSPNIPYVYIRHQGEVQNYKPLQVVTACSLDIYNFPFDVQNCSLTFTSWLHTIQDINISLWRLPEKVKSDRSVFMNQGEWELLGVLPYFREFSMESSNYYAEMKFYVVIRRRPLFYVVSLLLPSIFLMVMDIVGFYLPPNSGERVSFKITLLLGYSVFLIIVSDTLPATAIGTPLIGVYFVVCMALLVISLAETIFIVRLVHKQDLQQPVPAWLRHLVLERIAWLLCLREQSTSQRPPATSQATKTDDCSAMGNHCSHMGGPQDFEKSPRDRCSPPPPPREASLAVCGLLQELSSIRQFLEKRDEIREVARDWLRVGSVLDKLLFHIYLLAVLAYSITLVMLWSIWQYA

[5] = molecular target: T4, 5-HT3A receptor; experiment: FlexStation fluorescent membrane-potential dye assay, transfected HEK 293 cells; format: cell-based; settings: concentrations up to 30 µM
[6] = molecular target: T5, (α4)2(β2)3 (HS isoform) α4β2 nAChR (Homo sapiens, UniProt P17787+P43681); experiment: Inhibition of ACh EC80 current responses, Xenopus oocytes, HS isoform; format: cell-based
T5 construct: expressed in transfected cells; host or cells: Xenopus laevis oocytes, nuclear injection of cDNA in plasmid pCI (10 α4 : 1 β2 for LS, 1 α4 : 10 β2 for HS)

[7] = molecular target: T6, human α4β2 nAChR (Homo sapiens, UniProt P17787+P43681); experiment: [3H]epibatidine radioligand binding (saturation and competition), membranes of transfected HEK 293 cells
T6 construct: expressed in transfected cells; host or cells: HEK 293 cells, transient transfection with JetPEI, membranes

[8] = physchem
[9] = molecular target: T7, (α4)3(β2)2 (LS isoform) α4β2 nAChR (Homo sapiens, UniProt P17787+P43681); experiment: Inhibition of ACh EC80 current responses, Xenopus oocytes, LS isoform; format: cell-based
T7 construct: expressed in transfected cells; host or cells: Xenopus laevis oocytes, nuclear injection of cDNA in plasmid pCI (10 α4 : 1 β2 for LS, 1 α4 : 10 β2 for HS)

[10] = Spectrophotometric titration pKa determination; settings: at pH 7.5
[11] = molecular target: T8, human α3β4 nAChR (Homo sapiens, UniProt P30926+P32297); experiment: [3H]epibatidine radioligand binding (saturation and competition), membranes of transfected HEK 293 cells
T8 construct: expressed in transfected cells; host or cells: HEK 293 cells, transient transfection with JetPEI, membranes

[12] = molecular target: T9, (α4)2(β2)3 (HS isoform) α4β2 nAChR β2S133Vα4T139V (Homo sapiens, UniProt P17787+P43681, S133V/T139V); experiment: Two-electrode voltage clamp, Xenopus oocytes, HS α4β2 nAChR β2S133Vα4T139V; format: cell-based
T9 construct: expressed in transfected cells; host or cells: Xenopus laevis oocytes, nuclear injection of cDNA in plasmid pCI

[13] = molecular target: T10, (α4)3(β2)2 (LS isoform) α4β2 nAChR β2S133Vα4T139V (Homo sapiens, UniProt P17787+P43681, S133V/T139V); experiment: Two-electrode voltage clamp, Xenopus oocytes, LS α4β2 nAChR β2S133Vα4T139V; format: cell-based
T10 construct: expressed in transfected cells; host or cells: Xenopus laevis oocytes, nuclear injection of cDNA in plasmid pCI

[14] = test system: human 5-HT3 serotonin receptor; settings: cited from earlier work
[15] = molecular target: T11, (α4)3(β2)2 (LS isoform) α4β2 nAChR β2S133V (Homo sapiens, UniProt P17787+P43681, S133V); experiment: Two-electrode voltage clamp, Xenopus oocytes, LS α4β2 nAChR β2S133V; format: cell-based
T11 construct: expressed in transfected cells; host or cells: Xenopus laevis oocytes, nuclear injection of cDNA in plasmid pCI

[16] = molecular target: T12, (α4)3(β2)2 (LS isoform) α4β2 nAChR α4T183V (Homo sapiens, UniProt P17787+P43681, T183V); experiment: Two-electrode voltage clamp, Xenopus oocytes, LS α4β2 nAChR α4T183V; format: cell-based
T12 construct: expressed in transfected cells; host or cells: Xenopus laevis oocytes, nuclear injection of cDNA in plasmid pCI

[17] = molecular target: T13, (α4)2(β2)3 (HS isoform) α4β2 nAChR α4T183V (Homo sapiens, UniProt P17787+P43681, T183V); experiment: Two-electrode voltage clamp, Xenopus oocytes, HS α4β2 nAChR α4T183V; format: cell-based
T13 construct: expressed in transfected cells; host or cells: Xenopus laevis oocytes, nuclear injection of cDNA in plasmid pCI

[18] = molecular target: T14, (α4)3(β2)2 (LS isoform) α4β2 nAChR β2S133Vα4T183V (Homo sapiens, UniProt P17787+P43681, S133V/T183V); experiment: Two-electrode voltage clamp, Xenopus oocytes, LS α4β2 nAChR β2S133Vα4T183V; format: cell-based
T14 construct: expressed in transfected cells; host or cells: Xenopus laevis oocytes, nuclear injection of cDNA in plasmid pCI

[19] = molecular target: T15, (α4)2(β2)3 (HS isoform) α4β2 nAChR α4T139V (Homo sapiens, UniProt P17787+P43681, T139V); experiment: Two-electrode voltage clamp, Xenopus oocytes, HS α4β2 nAChR α4T139V; format: cell-based
T15 construct: expressed in transfected cells; host or cells: Xenopus laevis oocytes, nuclear injection of cDNA in plasmid pCI

[20] = molecular target: T16, (α4)3(β2)2 (LS isoform) α4β2 nAChR α4T139V (Homo sapiens, UniProt P17787+P43681, T139V); experiment: Two-electrode voltage clamp, Xenopus oocytes, LS α4β2 nAChR α4T139V; format: cell-based
T16 construct: expressed in transfected cells; host or cells: Xenopus laevis oocytes, nuclear injection of cDNA in plasmid pCI

[21] = molecular target: T17, (α4)2(β2)3 (HS isoform) α4β2 nAChR β2S133V (Homo sapiens, UniProt P17787+P43681, S133V); experiment: Two-electrode voltage clamp, Xenopus oocytes, HS α4β2 nAChR β2S133V; format: cell-based
T17 construct: expressed in transfected cells; host or cells: Xenopus laevis oocytes, nuclear injection of cDNA in plasmid pCI

[22] = molecular target: T18, (α4)2(β2)3 (HS isoform) α4β2 nAChR β2S133Vα4T183V (Homo sapiens, UniProt P17787+P43681, S133V/T183V); experiment: Two-electrode voltage clamp, Xenopus oocytes, HS α4β2 nAChR β2S133Vα4T183V; format: cell-based
T18 construct: expressed in transfected cells; host or cells: Xenopus laevis oocytes, nuclear injection of cDNA in plasmid pCI

For `c1ccc2cc3c(cc2c1)C1CNCC3C1` [C2 varenicline 4], which RE [1] is on record?
Its RE is 0.102 ± 0.012 ^a.

And the “fold increase in EC50 vs varenicline 1” value [1]?
The value was 10 fold.

And the “fold reduction of efficacy vs varenicline 1” value (shortened to “fold reduction of efficacy”) [1]?
Its value is 4 fold.

What about the EC50 ([1]; Table 3, LS (α4)3(β2)2, varenicline variants series, read-out: EC50) of the same compound?
Its EC50 is 11.5 ± 1.74 µM.

And the Ki [2]?
Its Ki is 1.32 µM.

And the RE [3]?
Its RE is 0.022 ± 0.0033 ^a.

What about the “fold increase in EC50 vs varenicline 1” value [3] of the same compound?
The value was 10 fold.

And the “fold reduction of efficacy” value [3]?
The value was 6 fold.

What about the EC50 [3] of the same compound?
Its EC50 is 2.64 ± 0.8 µM.

What about the “fold increase of IC50 against [3H]GR65630 compared to varenicline 1” value [4] of the same compound?
Its value is 44 fold.

And the IC50 ([4]; mean + SEM, read-out: pIC50, inhibition of [3H]GR65630 binding (converted))?
Its IC50 is 13.6 µM.

What about the “functional response at 5-HT3A receptors” value [5] of the same compound?
Its value is “No signiﬁcant responses”.

And the IC50 [6]?
Its IC50 is 11 ± 1.2 µM.

And the Ki [7]?
Its Ki is 0.0143 ± 0.0016 µM.

And the “fold decrease in affinity compared to varenicline 1” value [7]?
Its value is “approximately 30 fold”.

What about the pKa [8] of the same compound?
Its pKa is 9.63 ± 0.08.

And the IC50 ([9]; co-applied with ACh EC80 300 µM)?
Its IC50 is 33 ± 14 µM.

What about the “protonated fraction of ammonium center” value [10] of the same compound?
Its value is no less than 90%.

What about the “Ki ratio α3β4/α4β2” value [11] of the same compound?
Its value is 18.7.

What about the Ki ([11]; competition with [3H]epibatidine 0.25 nM, Cheng-Prusoff) of the same compound?
Its Ki is 0.267 ± 0.073 µM.

With `O=c1cccc2n1C[C@@H]1CNC[C@H]2C1` [Cytisine 3, cytisine] as the compound, how does the EC50 [1] read?
Its EC50 is 2.9 ± 0.8 µM.

What about the “RE (relative efficacy, I/ImaxACh)” value [1] of the same compound?
Its value is 0.23 and 0.23 ± 0.08.

And the “RE (relative efficacy, I/ImaxACh)” value [12]?
The value was 0.022 ± 0.009.

And the “RE (relative efficacy, I/ImaxACh)” value [3]?
Its value is 0.025 and 0.025 ± 0.004.

What about the EC50 [13] of the same compound?
Its EC50 is 5.8 ± 1.4 µM.

What about the “RE (relative efficacy, I/ImaxACh)” value [13] of the same compound?
Its value is 0.18 ± 0.01.

What about the “fold less potent than varenicline 1” value [14] of the same compound?
The value was 2,000 fold.

And the EC50 [15]?
The EC50 was 5.1 ± 1 µM.

And the “RE (relative efficacy, I/ImaxACh)” value [15]?
The value was 0.21 ± 0.01.

And the EC50 [16]?
Its EC50 is 4.6 ± 1 µM.

And the “RE (relative efficacy, I/ImaxACh)” value [16]?
Its value is 0.22 ± 0.02.

What about the “RE (relative efficacy, I/ImaxACh)” value [17] of the same compound?
Its value is 0.021 ± 0.003.

What about the EC50 [18] of the same compound?
Its EC50 is 6.9 ± 1.5 µM.

What about the “RE (relative efficacy, I/ImaxACh)” value [18] of the same compound?
The value was 0.19 ± 0.01.

What about the pKa ([8]; pKa value) of the same compound?
Its pKa is 8.07.

What about the “RE (relative efficacy, I/ImaxACh)” value [19] of the same compound?
The value was 0.023 ± 0.001.

And the EC50 [20]?
Its EC50 is 2.5 ± 0.7 µM.

What about the “RE (relative efficacy, I/ImaxACh)” value [20] of the same compound?
Its value is 0.19 ± 0.02.

What about the “RE (relative efficacy, I/ImaxACh)” value [21] of the same compound?
The value was 0.016 ± 0.002.

And the “RE (relative efficacy, I/ImaxACh)” value [22]?
The value was 0.018 ± 0.003.

For `c1ccc2nc3c(nc2c1)C1CNCC3C1` [Isovarenicline 5], which RE [1] is on record?
The RE was 0.054 ± 0.013 ^a.

What about the “fold reduction of efficacy” value [1] of the same compound?
Its value is 7 fold.

And the EC50 ([1]; read-out: EC50)?
The EC50 was 26 ± 8.5 µM.

What about the Ki [2] of the same compound?
The Ki was 127 µM.

What about the RE [3] of the same compound?
Its RE is 0.0071 ± 0.00086 ^a.

And the “fold reduction of efficacy” value [3]?
The value was 20 fold.

And the EC50 [3]?
The EC50 was 13.3 ± 2.5 µM.

What about the “fold increase of IC50 against [3H]GR65630 compared to varenicline 1” value [4] of the same compound?
The value was 165 fold.

And the IC50 ([4]; [3H]GR65630 0.3 nM, read-out: IC50, inhibition of [3H]GR65630 binding)?
The IC50 was 49.6 µM.

What about the “functional response at 5-HT3A receptors” value [5] of the same compound?
The value was “No signiﬁcant responses”.

And the IC50 [6]?
The IC50 was 70 ± 12 µM.

And the Ki ([7]; read-out: Ki α4β2)?
Its Ki is 5.46 µM.

What about the pKa [8] of the same compound?
Its pKa is 8.44 ± 0.09.

And the IC50 [9]?
The IC50 was 142 ± 21 µM.

And the “protonated fraction of ammonium center” value [10]?
Its value is no less than 90%.

What about the Ki [11] of the same compound?
Its Ki is 67.7 µM.

What about the “Ki ratio α3β4/α4β2” value [11] of the same compound?
The value was 12.
